Measurements published in patent US11260050B2, “Combination of cotinine plus antioxidant for treatment-resistant depression and correction of astrocytes functional deficit induced by depression and other neuropathological” (UNIVERSIDAD SAN SEBASTIAN, priority 2017, dated 2022).

Key:
[1] = test system: mice subjected to fear conditioning; assay: Porsolt test after fear conditioning (Example 1, Experiment 3); format: in vivo, C57BL/6 mice; conditions: FC mice, IN post-treatment; cotinine p<0.01, combination p<0.05
Description: Mice were treated via IN 2 hours after fear conditioning and continuously until euthanasia.
Mice (n=5-6/condition) received daily treatments with 1. PBS (phosphate buffer saline, pH 7.4) via intranasal (2×12 μl/nostril), 2. Cotinine dissolved in PBS via intranasal (Cot IN, 10 mg/ml, 2×12 μl/nostril); 3. Cotinine+krill oil both dissolved in PBS via intranasal (Cot IN, 10 mg/ml+KO, 48 mg/ml, 2×12 μl/nostril).
Contextual FC was performed as described. The conditioning chamber used is surrounded by a sound-attenuating box with a camera connected to freeze frame software (MED Associates Inc.), also equipped to provide a background white noise (72 dB). The conditioning chamber (33 cm×20 cm×22 cm) contains in one side a speaker and in the opposite slide has a 24V light. The chamber has a 36-bar insulated shock grid floor. […] Freezing behavior that is defined as the absence of all movement except the one needed for breathing was assessed using the FreezeView Software (MED Associates Inc.).
This test is used to measure the antidepressant effects of drugs, and consists in placing each mouse in a transparent cylinder filled with water at room temperature (RT). […] The immobility time will be recorded during a 15-min and a next day 5-min trial. The time spent by each mouse immobile will be recorded.

conditioned mice = assay: Fear retention and extinction tests after fear conditioning (Example 4); format: in vivo, Mice C57BL/6
Description: (§1) Three-month-old mice (n=5-6/condition) were weighed and assigned to treatment groups. Mice were treated with vehicle or drugs, starting two h after fear conditioning and daily after behavioral testing until euthanasia. Mice received daily treatments with 1. PBS (phosphate buffer saline, pH 7.4) via intranasal; 2. Cotinine (10 mg/ml) dissolved in PBS via intranasal (IN Cot, 24 μl); 3. Krill oil dissolved in PBS, via intranasal (48 mg/ml, 24 μl); 4. Cotinine (10 mg/ml) plus krill oil dissolved in PBS, via intranasal (48 mg/ml, 24 μl); 5.
For intranasal delivery, mice were hand-restrained, placed in a supine position, and given two 12 μl drops of cotinine solutions, or PBS, into both nares consecutively. Mice were given an extra 12 μl treatment drop if the subject forcibly ejected or sneezed out the solution. Mice were held supine for 5-10 seconds after delivery to ensure that all fluid was inhaled.
Contextual fear conditioning was performed as described. The conditioning chamber used (33 cm×20 cm×22 cm) is surrounded by a sound-attenuating box with a camera connected to freeze frame software (MED Associates Inc.) and equipped to provide a background white noise (72 dB). The conditioning chamber contains in one side a speaker and in the opposite side has a 24V light, and a 36-bar insulated shock grid floor. To perform this test, each mouse was placed in the conditioning chamber for 2 min before the onset of a discrete tone (a sound that will last 30 seconds (sec) at 2,800 Hz and 85 dB). In the last two seconds of this tone, mice received a foot shock of 1 mA, kept in the conditioning chamber for 2 min and returned to their home cages. Between trials, the chamber was sanitized with 70% ethanol and dried. Freezing behavior was defined as the absence of all movement except the one needed for breathing was assessed using the FreezeView Software (MED Associates Inc.).
Fear retention and extinction experiments were performed as described, using the same cohorts of mice and reproduced in two separate experiments. To assess fear retention and mice underwent re-exposure to the conditioning chamber in the absence of an unconditioned stimulus (shock or auditory cues) for 3 minutes (min) in daily extinction trials. Freezing behavior was measured using the ANY-Maze® software (Stoelting CO, USA). The extinction trials were continued until the decrease in freezing behavior reached a stable level.

calcineurin A = assay: Western blot of calcineurin A in the hippocampus (Example 4); format: in vivo, Mice C57BL/6; conditions: conditioned mice after extinction; vs PBS-treated conditioned mice
Description: as §1, with “5. […] The dose of cotinine was ten times lower than the dose of oral cotinine promoting fear extinction in C57BL/6 mice.” for “5.”
After the behavioral testing, mice from all treatment groups were euthanized via cervical dislocation by a well-trained investigator. Brain regions of interest were dissected and stored at −20° C. for protein analyses. Each brain was divided into two parts, left and right hemispheres. […] The protein concentration of the supernatants was measured using the Bio-Rad protein assay (Bio-Rad, Hercules, Calif., USA). […] Membranes were washed with TBST and incubated with HRP-conjugated secondary antibodies (Bio-Rad) for 1 h at RT, washed with TBST and TBS, and images were acquired using My ECL imaging system and analyzed using the NIH Image J software.

`CN1C(=O)CC[C@H]1c1cccnc1` [Cotinine, (5S)-1-methyl-5-(3-pyridyl) pyrrolidin-2-one] was tested, and the “depressive-like behavior (freezing) in the Porsolt test” value [1] was “significant decrease in depressive-like behavior”, the “freezing behavior during daily extinction trials (speed of fear extinction)” value (conditioned mice; 5 days of extinction, daily treatment) was “faster extinction of fear” and the “day on which maximal decrease in freezing was reached” value (conditioned mice; same time as mice treated with PBS) was 4 days. The “fear reaction (freezing) in the retention test” value (conditioned mice; treatment started 2 h after FC, IN cotinine 10 mg/ml, IN KO 48 mg/ml, oral sertraline 3 mg/kg) was “significant decrease in the fear reaction in the retention test” and the “calcineurin A levels in the hippocampus” value (calcineurin A) was “significantly different from PBS-treated conditioned mice”.
